{"source": "patent US20090075925A1", "about": "“Methods and Compositions Related to APOBEC-1 Expression” (priority 2006, published 2009)", "key": {"apoB mRNA editing": {"system": "apoB mRNA editing", "procedure": "Protein phosphatase inhibitor studies. […] The compounds' effects on apoB mRNA editing were evaluated by RT-PCR and poisoned-primer extension analysis (Sowden et al. Rna 2:274-88 (1996)). The effect of 470 nM cantharidin on ACF subcellular distribution was investigated by treating primary hepatocyte cultures for 6 hours followed by nuclear and cytoplasmic extract preparation.\nIt was reasoned that if phosphorylation of ACF regulated editing activity, treatment of rat primary hepatocytes with phosphatase inhibitors might stimulate apoB mRNA editing activity. […] The experiments (n=4-6) were done over a number of months and therefore represent primary hepatocytes from several rats.\nEditing activity was quantified from primary hepatocytes incubated with 10-100-times the EC50 of the various […] (Calbiochem)."}, "PKA [1]": {"system": "PKA", "conditions": "cited from earlier work"}, "ACF": {"system": "ACF", "experiment": "ACF phosphorylation in 32P-labeled rat primary hepatocytes (ACF immunoprecipitation, autoradiography)", "assay_type": "cell-based", "conditions": "32Pi 500 μCi/ml, 6 hours", "procedure": "In vivo phosphorylation of ACF. In vivo ^32P labeling was performed by intraperitoneal injection of rats with 12.5 mCi of orthophosphoric acid (10 mCi/ml ^32PO4; NEN, Boston, Mass.) buffered with 50 mM HEPES, pH 7.0 and 150 mM NaCl. After 4 hours, rats were sacrificed and hepatic cytoplasmic and nuclear extracts prepared. Primary hepatocyte cultures in 60 mm dishes were incubated in phosphate-free Minimum Essential Eagle Media (Sigma) containing 0.1 nM porcine insulin for 6 hours and subsequently in fresh media containing 10 nM insulin (equivalent to that seen in post-prandial serum) or 0.45% to 0.9% ethanol (AAPER Alcohol and Chemical Co., Shelbyville, Ky.) (Van Mater et al. (1998), Yang et al. (2000)) plus 2.0 mCi orthophosphoric acid. Cultures were labeled for 4 hours prior to extract preparation.\nTo evaluate the effect of phosphatase inhibition on ACF phosphorylation, cultures were pre-incubated for 2 hours with 470 nM cantharadin in phosphate-free Waymouth's media and subsequently supplemented with 0.5 mCi ^32pO4 and incubated for an additional 4 hours. Cultures were harvested and subcellular extracts prepared.\nImmunological techniques. […] For immunoprecipitation analyses all radiolabeled extracts were adjusted to 5 mM MgCl2 and digested with 100 units of DNase I (Promega), RNase T1 (Roche, Ind.), and RNase A (Sigma) for 1 hour on ice to remove radiolabeled nucleic acid. Where applicable, extracts were incubated overnight with ACF CT antibody at 4° C. and subsequently reacted with Protein A-agarose (Oncogene Research Products, Boston, Mass.) pre-washed with 1×TBS/10 mM NaF. The immuno-absorbed material was washed 3 times with 1×TBS/10 mM NaF, 3 times with 1×TBS/1 M NaCl (Yang et al. (1997)) and lastly 3 times with 1×TBS. Immuno-absorbed material to be treated with alkaline phosphatase was washed with 50 mM Tris, pH 8.4, 1 mM MgCl2, 0.1 mM ZnCl2, 25% glycerol and then incubated with 5 U CIAP for 1 hour at 30° C. and then washed 6 times with 1×TBS. ACF-antibody complexes were eluted with 3 M sodium thiocyanate, acetone precipitated and analyzed by 10.5% SDS-PAGE followed by autoradiography and/or western blotting with ACF NT antibody. For ACF immunoprecipitation from gradient fractions an equal volume of pooled gradient fractions from sedimentation zones of interest were reacted with sub-saturating amounts of ACF CT antibody to ensure that the recovery of phospho-ACF was not simply a reflection of ACF abundance in each zone.\nTo evaluate this, cytoplasmic and nuclear extracts from radiolabeled primary hepatocyte cultures were sedimented through 10%-50% glycerol gradients. […] The ACF immunoprecipitates were resolved by SDS-PAGE, transferred to nitrocellulose, autoradiographed and subjected to phosphorimager scanning to detect and quantify radiolabeled proteins prior to immunoblotting with the ACF NT antibody."}, "ACF64": {"system": "ACF64", "experiment": "ACF phosphorylation in 32P-labeled McArdle cells", "assay_type": "cell-based, rat", "conditions": "6 hour", "procedure": "Numerous kinase inhibitors were evaluated but only those acting on Protein Kinase C affected editing activity. […] Cell extracts were immunoprecipitated with the ACF C-terminal specific antibody and analyzed by PAGE and autoradiography (FIG. 23). […] However, at and above the IC50 of PKC, phosphorylation of ACF64 was inhibited by 90% and 100%."}, "PKC [2]": {"system": "PKC", "conditions": "cited from earlier work"}, "PKA [3]": {"system": "PKA", "conditions": "cited from earlier work", "remark": "listed apart in the source"}, "[4]": {"conditions": "10 mg/kg per day IP, 26 day period; cited from earlier work"}, "PKC [5]": {"system": "PKC", "conditions": "cited from earlier work", "remark": "listed apart in the source"}}, "note": "Where two headings read alike, the source gives them in different places."}
{"compound": "Nc1ncnc2c1nc(Sc1ccc(Cl)cc1)n2[C@@H]1O[C@@H]2COP(=O)(O)O[C@H]2[C@H]1O", "note": "[8-cpt cAMP]", "values": [{"measurement": "apoB mRNA editing, Mean", "setting": "apoB mRNA editing; 2 μM", "value": 61.2, "unit": "%"}, {"measurement": "apoB mRNA editing, Mean", "setting": "apoB mRNA editing; 20 μM", "value": 59.3, "unit": "%"}, {"measurement": "apoB mRNA editing, Mean", "setting": "apoB mRNA editing; 200 μM", "value": 59.6, "unit": "%"}, {"measurement": "EC50", "setting": "PKA [1]", "value": 2, "unit": "µM"}]}
{"compound": "NCCNS(=O)(=O)c1cccc2c(Cl)cccc12", "note": "[A3]", "values": [{"measurement": "effect on editing in hepatocytes", "setting": "apoB mRNA editing", "value": "stimulated"}, {"measurement": "concentration at which ACF phosphorylation was inhibited", "setting": "ACF", "value": "≥ 40", "unit": "µM"}, {"measurement": "inhibition of ACF64 phosphorylation", "setting": "ACF64; above the IC50 of PKC (120 μM)", "value": 100, "unit": "%"}, {"measurement": "decrease of ACF phosphorylation relative to untreated cells", "setting": "ACF64; at the IC50 of PKA (4 μM)", "value": 20, "unit": "%"}, {"measurement": "inhibition of ACF64 phosphorylation", "setting": "ACF64; at the IC50 of PKC (40 μM)", "value": 90, "unit": "%"}, {"measurement": "IC50", "setting": "PKC [2]", "value": 47, "unit": "µM"}, {"measurement": "IC50", "setting": "PKA [3]", "value": 4, "unit": "µM"}]}
{"compound": "leptin: protein product of the ob gene, 16 kDa circulating hormone", "values": [{"measurement": "decrease in weight at the conclusion of the study", "setting": "[4]", "value": "~20", "unit": "%"}]}
{"compound": "CC(C)[C@H]1C(=O)N[C@H](CO)Cc2c[nH]c3cccc(c23)N1C", "note": "[Indolactam V]", "values": [{"measurement": "apoB mRNA editing, Mean", "setting": "apoB mRNA editing; 12 μM", "value": 92.47, "unit": "%"}, {"measurement": "editing activity compared to solvent treated controls (from 65%)", "setting": "apoB mRNA editing; 12 μM, SEM 4.8, n=2", "value": 92, "unit": "%"}, {"measurement": "apoB mRNA editing, Mean", "setting": "apoB mRNA editing; 120 μM", "value": 91.57, "unit": "%"}, {"measurement": "effect on apoB mRNA editing", "setting": "apoB mRNA editing; concentration not given", "value": "stimulated editing"}, {"measurement": "EC50", "setting": "PKC [5]", "value": 0.2, "unit": "µM"}]}
